According to US20260007729A1, “IM[…] VIRAL […](S)” (IMMUNEO Therapeutics GmbH, priority 2022, published 2026):

Tests used:
[1] = system: PBMCs from a healthy adult human; assay: IFNγ ELISpot analysis of antigen peptides ex vivo; type: cell-based; conditions: for Activation*10 (IFNγ activity, activation values times 10): calculated by formula, neg 36.0; for Cells/100,000 cells (positive counts per 100,000 cells): cells pre-stimulated with peptide pool, 267,000 cells per well, duplicates; for Effectiveness of immunization (product of number of activated cells and activation): FIG. 11, descending order
[2] = system: peripheral blood mononuclear cells (PBMCs) from a human donor; assay: Intracellular Cytokine Staining (ICS) of antigen polypeptides; type: cell-based
Method: An Intracellular Cytokine Staining (ICS) assay to assess the T-cell responses induced by an antigen polypeptide in the spirit of the current invention was carried out following this experimental procedure. The experimental procedure involved several sequential steps to prepare and analyze freshly harvested peripheral blood mononuclear cells (PBMCs) from a human donor.
PBMCs were cultured in RPMI-1640 medium supplemented with 10% fetal bovine serum, penicillin-streptomycin, and L-glutamine at 37° C. with 5% CO2. After culture, the cells were divided into different experimental groups. The cells were then stimulated with the antigen peptide vaccine or a control peptide, along with appropriate cytokines and co-stimulatory molecules to facilitate T cell activation. The antigen peptide was designed to effectively stimulate both CD4 and CD8 T-cell responses.
To inhibit cytokine secretion and promote intracellular cytokine accumulation, brefeldin A was added to the stimulated cells at a concentration of 10 μg/mL, and the cells were incubated overnight. Subsequently, the cells were harvested, and staining was performed. Fluorescently labeled antibodies, including AlexaFluor 488-conjugated anti-IFNγ and APC-H7-conjugated anti-CD4, as well as Pacific Orange-conjugated anti-CD8 and a cell surface marker were added to the cells and incubated.
To facilitate antibody access to intracellular molecules, the cells were fixed and permeabilized using a fixation solution and permeabilization buffer. Intracellular cytokine staining was carried out by adding fluorescently labeled antibodies against IFNγ or other cytokines of interest. Following staining, flow cytometry analysis was performed by gating on CD4 and CD8 T cells to determine the percentage of cytokine-producing cells.
The obtained data were analyzed to compare the percentage of cytokine-producing CD4 and CD8 T cells stimulated with the antigen polypeptides to that of unstimulated CD4 and CD8 T cells or T cells stimulated with a control peptide. […]

[3] = system: T cell CD4 and CD8 activity; assay: Antigen response in mice, second trial (immunization, intracellular cytokine staining); type: in vivo, wild-type mice (C57BL/6); conditions: mice immunized with Pep2 C, restimulation with peptides (FIG. 9)
Method: 3 Groups of wild-type mice (C57BL/6) consisting of 5 mice (group 2,3) and 3 mice for the negative control (group 1) were administered different vaccine candidates (as following) for evaluation.
The Groups were administered the following compositions: • a) Group 1 (no vac.): no vaccine • b) Group 2 (Pep2 C): peptide mix (60 μg per single peptide, 12 peptides selected from SEQ ID NOs: 43, 44, 46, 47, 50-58) with c-di-AMP (10 mg/dose) adjuvant • c) Group 3 (mRNA): Comirnaty mRNA vaccine (5 μg/dose)
The antigen peptide formulations in accordance with the present invention were administered subcutaneous (SC) three times in two-week intervals (see FIG. 7), the mRNA vaccine was administered intramuscular (IM) two times in a four-week interval (Group 3). After five weeks the immune response was determined, T cell CD8 activity was examined by cytokines secreted in response to stimulation with the peptide antigens were determined by intracellular cytokine staining (ICS) with Intracellular cytokine staining with IFNγ and TNFγ. Specific antibodies.

Sequence	Activation*10 (IFNγ activity, activation values times 10) [1]	Cells/100,000 cells (positive counts per 100,000 cells) ([1]; neg 25.8)	Effectiveness of immunization (product of number of activated cells and activation) [1]	other results
GKEDLKFPRGQGVPINTNSS [Pep-18]	10.1	24.3 Cells/100,000 cells		
IRAAEIRASANLAATKM [Pep-21]		50.9 Cells/100,000 cells	most effective	
DGYFKIYSKHTPINLV [Pep-17]	99.6	249.1 Cells/100,000 cells	most effective	Cells/100,000 cells (positive counts per 100,000 cells) ([1]; neg 25.8, listed as Peptide 17): especially high counts
MAYRFNGIGVTQNVLYE [Pep-7]		41.9 Cells/100,000 cells	most effective	CD8 / CD8+ response in ICS ([2]; FIG. 5, FIG. 9, groups of Table E7-1): strong CD8+ response; CD4 response in ICS ([2]; FIG. 8, groups of Table E7-1): some CD4 response; Individual activities in the ICS study ([2]; single peptides): high individual activities; Single peptide-specific CD8 T cell reaction [3]: caused a CD8 T cell reaction
TFEYVSQPFLMDLEGKQ [Pep-13]	53.1	322.8 Cells/100,000 cells	most effective	Cells/100,000 cells (positive counts per 100,000 cells) ([1]; neg 25.8, listed as Peptide 13): especially high counts
GDCLGDIAARDLIC [Pep-14]		262.2 Cells/100,000 cells	most effective	Cells/100,000 cells (positive counts per 100,000 cells) ([1]; neg 25.8, listed as Peptide 14): especially high counts
RQGTDYKHWPQIAQF (synthetic peptide used as antigen comprising at least one HLA antigen peptide) [Pep-19]	36.6	21.3 Cells/100,000 cells		
AATKMSECVLGQSKRVD [Pep-9]	38.0	22.1 Cells/100,000 cells		
KDLSPRWYFYYLGTG [Pep-20]	93.3	31.5 Cells/100,000 cells		
LGKYEQYIKWPWYIWLGFIAG [Pep-15]	36.5	16.9 Cells/100,000 cells		
AISSVLNDILSRLDKVE [Pep-10]	34.8	17.2 Cells/100,000 cells		
